IC50 and IC90 data for 39 molecules are collected here from ChEMBL document CHEMBL4483862, “Open-source discovery of chemical leads for next-generation chemoprotective antimalarials” (2018).

In general, IC50 refers to the point on the concentration scale where inhibition reaches its midpoint. As a reminder, the IC90 is the point of the concentration-response curve where the effect stands at 90%.

For the assay, the system named is Plasmodium berghei. Description: Luciferase/luciferin-expressing antifolate-resistant parasites were used to infect a culture of HepG2 cells that were pre-incubated with compounds. Infected hepatocytes emit light due to the luciferase reaction. Assay results are presented as the percent inhibition of light emission compared to control. […]. Particulars: sporozoite; for IC90: read-out: LUCIFERASE INFECTION ASSAY - IC90. The assay is classed as functional.

[1] abbreviates: read-out: LUCIFERASE INFECTION ASSAY - IC50.

Take `N#Cc1c(OCC(F)(F)F)ccc(Sc2ccc(C(F)(F)F)cn2)c1OCC(F)(F)F`: the IC90 is more than 6.93 µM. Also, under setting [1], the IC50 turned out to be 5.5 µM. `CCCCN(C)CC(O)Cn1c2ccc(Br)cc2c2cc(Br)ccc21` (configuration not stated): the concentration for an effect of 90% (IC90) is more than 7.05 µM. Besides, the IC50 (PBLUC_HILL_SLOPE 8.48, PBLUC_R_SQUARED 0.699, read-out: LUCIFERASE INFECTION ASSAY - IC50) turned out to be 5.83 µM. As to `c1ccc(-c2nnc(CSC3=NCCS3)o2)cc1`, the IC90 is more than 10 µM. The IC50 under setting [1] was more than 10 µM.

Consider `CCCN1CCc2nc(Nc3ccc(OCc4ccccc4)cc3)ncc2C1`, for which the IC90 is more than 8.81 µM. Moreover, the IC50 under setting [1] was more than 8.81 µM. Turning to `CCCNC(=O)/C(=C\c1cccc(Br)c1)c1nc2ccccc2[nH]1`, the IC90 was determined as 9.54 µM. For the setting “HEPG2TOX_HILL_SLOPE 11.6, HEPG2TOX_R_SQUARED 0.535, PBLUC_HILL_SLOPE 4.15, PBLUC_R_SQUARED 0.775, read-out: LUCIFERASE INFECTION ASSAY - IC50”, the IC50 was 5.62 µM. Regarding `CCc1nnc(NC(=O)CCSCc2cn3ccccc3n2)s1`, the IC90 was more than 10 µM. Besides, the IC50 under setting [1] was more than 10 µM. As to `c1nc(NCc2ccc(CN3CCOCC3)cc2)c2c3c(sc2n1)CCC3`, the 90% effect concentration (IC90) was found to be 1.55 µM. Also, the IC50 (HEPG2TOX_HILL_SLOPE 1.37, HEPG2TOX_R_SQUARED 0.969, PBLUC_HILL_SLOPE 10, PBLUC_R_SQUARED 0.164, read-out: LUCIFERASE INFECTION ASSAY - IC50) amounted to 1.25 µM.

Consider `COCCCn1c(Sc2ncc(Br)cc2[N+](=O)[O-])nnc1-c1ccc(C(C)(C)C)cc1`, for which the IC90 was more than 6.52 µM. Further, under “PBLUC_HILL_SLOPE 13.2, PBLUC_R_SQUARED 0.0327, read-out: LUCIFERASE INFECTION ASSAY - IC50”, the IC50 is more than 6.52 µM. On to `CC1C(=O)N(CC(O)COCc2ccccc2Cl)C(=O)N1c1ccccc1` (configuration not stated), for which the IC90 is more than 10 µM. Further, the IC50 (FFLUC_HILL_SLOPE 10.9, FFLUC_R_SQUARED 0.0106, read-out: LUCIFERASE INFECTION ASSAY - IC50) is more than 10 µM. With `O=C(NCc1nccs1)c1nn(Cc2ccccc2)c2c1CN(C(=O)c1cc3ccccc3[nH]1)CC2`, the IC90 was more than 6.65 µM. The IC50 (PBLUC_HILL_SLOPE 8.98, PBLUC_R_SQUARED 0.075, read-out: LUCIFERASE INFECTION ASSAY - IC50) turned out to be 5.69 µM. With `COc1cc(Cl)c(C)cc1-n1c(Sc2ccc([N+](=O)[O-])c(C(F)(F)F)c2)nc2ccccc2c1=O`, the IC90 is more than 10 µM. The IC50 (FFLUC_HILL_SLOPE 1.25, FFLUC_R_SQUARED 0.54, HEPG2TOX_HILL_SLOPE 0.668, HEPG2TOX_R_SQUARED 0.6, PBLUC_HILL_SLOPE 3.18, PBLUC_R_SQUARED 0.355, read-out: LUCIFERASE INFECTION ASSAY - IC50) amounted to 6.33 µM. Turning to `CN(C)CCCOc1ccc(-c2nnc3ccc(-c4cccc(OC(F)(F)F)c4)cn23)cc1`, the concentration for an effect of 90% (IC90) is more than 10 µM. In addition, the IC50 (PBLUC_HILL_SLOPE 3.54, PBLUC_R_SQUARED 0.437, read-out: LUCIFERASE INFECTION ASSAY - IC50) was found to be 7.74 µM. For the molecule `CCC(C)(C)NS(=O)(=O)c1ccc(C(C)(C)C)cc1`, the IC90 is more than 10 µM. Besides, the IC50 (PBLUC_HILL_SLOPE 1.46, PBLUC_R_SQUARED 0.189, read-out: LUCIFERASE INFECTION ASSAY - IC50) is more than 10 µM. In the case of `COc1cc2c(cc1NC(=O)C(C)N1CCN(C/C=C/c3ccccc3)CC1)oc1ccccc12` (configuration not stated), the IC90 was more than 10 µM. Also, the IC50 under setting [1] came out at 9.73 µM. In the case of `Cc1c(CN2CCN(c3ccccn3)CC2)noc1-c1ccc(F)cc1`, the IC90 turned out to be 3.45 µM. Also, for the setting “PBLUC_HILL_SLOPE 83.7, PBLUC_R_SQUARED 0.475, read-out: LUCIFERASE INFECTION ASSAY - IC50”, the IC50 came out at 3.36 µM. Consider `Clc1ccc(Cl)c(-c2ccc(CNCCN3CCNCC3)o2)c1`, for which the IC90 was 7.07 µM. Also, the IC50 (HEPG2TOX_HILL_SLOPE 36.7, HEPG2TOX_R_SQUARED 0.263, PBLUC_HILL_SLOPE 4.39, PBLUC_R_SQUARED 0.663, read-out: LUCIFERASE INFECTION ASSAY - IC50) was 4.28 µM. For `Cc1ccc(-n2nc(C)c(/C=C3\SC(=S)N(c4ccc(C(=O)O)cc4)C3=O)c2Cl)c(C)c1`, the IC90 is more than 10 µM. In addition, under setting [1], the IC50 was determined as 9.42 µM. On to `Cc1cc(NNC(=O)c2ccccc2Cl)nc2c1c(-c1cccs1)nn2C`, for which the IC90 was more than 8.29 µM. In addition, the IC50 under setting [1] is more than 8.29 µM. In the case of `N=C(N)N/N=C/c1ccc(N(c2ccccc2)c2ccccc2)cc1`, the IC90 stood at 9.95 µM. For the same molecule, the IC50 under setting [1] amounted to 8.03 µM. `CC(C)CN1CCC1(C(=O)NCc1cccc2ccccc12)c1ccccc1` (configuration not stated): the IC90 is more than 8.86 µM. Where the note is “HEPG2TOX_HILL_SLOPE 0.125, HEPG2TOX_R_SQUARED 0.379, PBLUC_HILL_SLOPE 1.82, PBLUC_R_SQUARED 0.397, read-out: LUCIFERASE INFECTION ASSAY - IC50”, the IC50 stood at 5.57 µM.

For `Cc1sc(-n2cccc2)c(C(=O)Nc2cccc(-c3nn[nH]n3)c2)c1C`, the IC90 was more than 10 µM. For the setting “FFLUC_HILL_SLOPE 1.33, FFLUC_R_SQUARED 0.778, read-out: LUCIFERASE INFECTION ASSAY - IC50”, the IC50 is more than 10 µM. Consider `COCCOc1ccc(C(F)(F)F)cc1NC(=O)c1ccc2ncsc2c1`, for which the IC90 was more than 10 µM. Besides, for the setting “PBLUC_HILL_SLOPE 1.17, PBLUC_R_SQUARED 0.0937, read-out: LUCIFERASE INFECTION ASSAY - IC50”, the IC50 came to 8.48 µM. Consider `Cc1cc(C(=O)NC2CCN(c3ncnc4sc5c(c34)CCCC5)CC2)on1`, for which the IC90 is more than 10 µM. For the same molecule, under setting [1], the IC50 is more than 10 µM. Turning to `O=C(COc1ccccc1C(=O)Nc1ccccc1)NC(c1ccc(F)cc1)c1cccs1` (configuration not stated), the IC90 was more than 10 µM. Moreover, the IC50 (FFLUC_HILL_SLOPE 12.2, FFLUC_R_SQUARED 0.17, PBLUC_HILL_SLOPE 2.56, PBLUC_R_SQUARED 0.393, read-out: LUCIFERASE INFECTION ASSAY - IC50) came out at 7.16 µM.

For `O=C1C=CC(=O)N1c1ccc(F)cc1F`, the IC90 came out at 13.8 µM. In addition, the IC50 (FFLUC_HILL_SLOPE 8.62, FFLUC_R_SQUARED 0.718, PBLUC_HILL_SLOPE 4.26, PBLUC_R_SQUARED 0.573, read-out: LUCIFERASE INFECTION ASSAY - IC50) came out at 8.24 µM. On to `Cc1cc(C)nc(-n2[nH]c(C)c(Cc3ccc(C(C)(C)C)cc3)c2=O)n1`, for which the IC90 was more than 9.42 µM. Also, under “PBLUC_HILL_SLOPE 0.924, PBLUC_R_SQUARED 0.378, read-out: LUCIFERASE INFECTION ASSAY - IC50”, the IC50 came out at 1.03 µM. As for `OCc1ccc(-c2cnc3cnc(-c4cccnc4)cn23)cc1`, the IC90 amounted to 7.72 µM. Further, under “PBLUC_HILL_SLOPE 5.76, PBLUC_R_SQUARED 0.27, read-out: LUCIFERASE INFECTION ASSAY - IC50”, the IC50 came to 5.27 µM.

Turning to `Cc1nc2c3c(C)c(C)n(Cc4ccccc4)c3ncn2n1`, the IC90 is more than 11.3 µM. In addition, the IC50 (PBLUC_HILL_SLOPE 3.56, PBLUC_R_SQUARED 0.538, read-out: LUCIFERASE INFECTION ASSAY - IC50) amounted to 9.25 µM. As to `Clc1cccc(-c2cnc3sc(NCCc4ccncc4)nn23)c1`, the IC90 is more than 9.27 µM. Also, the IC50 (HEPG2TOX_HILL_SLOPE 2.13, HEPG2TOX_R_SQUARED 0.945, PBLUC_HILL_SLOPE 2.85, PBLUC_R_SQUARED 0.464, read-out: LUCIFERASE INFECTION ASSAY - IC50) amounted to 5.6 µM.

Consider `Cc1cc(C(=O)COc2ccc(-c3nnco3)cc2)c(C)n1-c1ccc(F)cc1`, for which the IC90 was more than 10 µM. For the same molecule, under setting [1], the IC50 turned out to be 8.4 µM. Regarding `Cn1nc(-c2ccc(/C=N/NC(=O)c3ccc(Cl)cc3)s2)cc1C(F)(F)F`, the IC90 turned out to be 3.23 µM. In addition, the IC50 (HEPG2TOX_HILL_SLOPE 12, HEPG2TOX_R_SQUARED 0.148, PBLUC_HILL_SLOPE 12.7, PBLUC_R_SQUARED 0.63, read-out: LUCIFERASE INFECTION ASSAY - IC50) was found to be 2.72 µM. With `COc1ccc(CC(=O)NCc2ccccc2Cl)cc1`, the 90% effect concentration (IC90) was more than 11.4 µM. The IC50 (HEPG2TOX_HILL_SLOPE 3.79, HEPG2TOX_R_SQUARED 0.83, read-out: LUCIFERASE INFECTION ASSAY - IC50) was more than 11.4 µM. On to `CN(Cc1nc(N)c2c3c(sc2n1)CCCC3)Cc1cccs1`, for which the IC90 was more than 10 µM. Besides, under “PBLUC_HILL_SLOPE 2.01, PBLUC_R_SQUARED 0.418, read-out: LUCIFERASE INFECTION ASSAY - IC50”, the IC50 was 4.1 µM. For `Cc1cc(C(=O)N/N=C2\C(=O)Nc3ccccc32)c(C)n1-c1ccc(F)cc1`, the IC90 was more than 10 µM. The IC50 (PBLUC_HILL_SLOPE 1.9, PBLUC_R_SQUARED 0.511, read-out: LUCIFERASE INFECTION ASSAY - IC50) is 3.94 µM. As for `CN(Cc1ccccc1N1CCCCC1)C(=O)c1ccc(NC(=O)C2CC2)s1`, the IC90 was more than 10 µM. For the same molecule, the IC50 under setting [1] is more than 10 µM. `O=C(Nc1ccc(N2CCCC2)cn1)c1cccc(F)c1`: the IC90 turned out to be 0.0621 µM.

For the molecule `CN(C)c1cccc(-c2cnc3cnc(-c4cccc(NS(C)(=O)=O)c4)cn23)c1`, the IC90 is more than 8.1 µM. The IC50 (HEPG2TOX_HILL_SLOPE 7.18, HEPG2TOX_R_SQUARED 0.638, PBLUC_HILL_SLOPE 3.24, PBLUC_R_SQUARED 0.204, read-out: LUCIFERASE INFECTION ASSAY - IC50) was found to be 4.82 µM.

Regarding `Fc1ccc(CSc2nc(CSc3ccc(Cl)cc3)cc(Sc3ccc(Cl)cc3)n2)cc1`, the IC90 was more than 6.35 µM. Further, under “FFLUC_HILL_SLOPE 2.29, FFLUC_R_SQUARED 0.432, read-out: LUCIFERASE INFECTION ASSAY - IC50”, the IC50 is more than 6.35 µM. As to `COc1ccc2[nH]cc(C(=O)CN3CCC(Cc4ccccc4)CC3)c2c1`, the IC90 is more than 9.1 µM. In addition, the IC50 (PBLUC_HILL_SLOPE 15.2, PBLUC_R_SQUARED 0.148, read-out: LUCIFERASE INFECTION ASSAY - IC50) stood at 8.48 µM.
